Holding throughout (experiment): DTP human tumour cell line panel, 48 h
In test [1] the test system is MDA-MB-231 breast.
Test [2] deals with OVCAR-8 ovarian.
Test [3] relates to RXF 393 renal.
In test [4] the test system is RPMI-8226 leukemia.
The test system of test [5] is HCT-15 colon.
Test [6] concerns SK-MEL-2 melanoma.
The subject of test [7] is K-562 leukemia.
Test [8] relates to SF-295 CNS.
Test [9] has as its system U251 CNS.
The test system of test [10] is OVCAR-3 ovarian.

SMILES strings stand for the structures.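 Tested at 5 concentrations; 48 h exposure; 96-well plates; endpoints linearly interpolated, else capped at highest concentration. GI50 marks 50% less growth. TGI denotes the concentration required for complete inhibition of growth.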

The GI50 is the concentration at which growth is held to half of that of the control. In general, TGI refers to the concentration at which net growth stops. Lower therefore signals greater sensitivity of the cells. For `CN(C)CC#Cc1cccc(C(=O)c2cnn(-c3ccc(F)cc3)c2N)c1`, the GI50 in test [1] is over 25 µM; in test [2], over 25 µM; in test [3], over 25 µM; in [4], over 25 µM; in [5] it was over 23.8 µM; in test [6], over 25 µM. In addition, the GI50 in [7] is over 17.8 µM; in [8] it was over 20.6 µM; in test [9], over 25 µM; in test [10], over 25 µM. Also, the TGI in test [1], in [2], in test [3], in test [4], in [5] and in test [6] was over 25 µM throughout. For the same compound, the total growth inhibition concentration (TGI) in test [7], in test [8], in test [9] and in [10] was over 25 µM throughout.
As for `CCOc1cc2ncc(C#N)c(Nc3ccc(F)c(Cl)c3)c2cc1NC(=O)/C=C/CN(C)C`, the GI50 is 0.882 µM in [1]; 0.295 µM in [2]; 0.255 µM in test [3]; 1.04 µM in [4]; 0.245 µM in [5]; 0.349 µM in test [6]. Further, the GI50 was 0.36 µM in [7], 2.25 µM in test [8], 0.625 µM in test [9] and 0.216 µM in test [10]. Further, the TGI in [1] was 5.07 µM; in test [2], over 9.22 µM; in [3] it was 3.46 µM; in [4], 3.33 µM; in [5], 4.07 µM; in [6], over 3.21 µM. Besides, the TGI is over 4.21 µM in test [7], over 10 µM in test [8], over 4.89 µM in test [9] and 1.77 µM in [10].
For `CCc1oc2ccccc2c1C(=O)c1cc(Br)c(O)c(Br)c1`, the TGI in test [1] is 44.7 µM; in [2], over 100 µM; in test [3], 35 µM; in [4], 75.5 µM; in test [5], 76.2 µM; in test [6] it was 45.3 µM. The TGI is 82.7 µM in [7], 83.5 µM in test [8], 31 µM in [9] and 43.2 µM in test [10].
Regarding `COc1ccc(C(=O)c2cc(OC)c(OC)c(OC)c2)cc1O`, the GI50 is 0.0559 µM in test [1]; 0.0427 µM in test [2]; 0.0167 µM in test [3]; 0.0342 µM in test [4]; under 0.01 µM in [5]; 0.238 µM in test [6]. Moreover, the concentration for 50% growth inhibition (GI50) in test [7] is under 0.01 µM; in test [8], 0.367 µM; in test [9], 0.0425 µM; in [10], 0.0207 µM. Moreover, the TGI in [1] is over 100 µM; in test [2] it was over 100 µM; in [3], over 100 µM; in [4], over 64.9 µM; in test [5] it was over 100 µM; in [6], over 100 µM. Besides, the TGI in test [7] is over 100 µM; in test [8], over 100 µM; in [9] it was over 100 µM; in test [10], 0.0511 µM.
`CC(=O)Oc1cccc2c1C(=O)C(Br)(Br)CCC2`: the TGI in [1] worked out at 8.41 µM; in test [2], 13 µM; in test [3], 12.6 µM; in test [4], 7.34 µM; in test [5] it was 29.4 µM; in [6] it was 21.5 µM. Further, the TGI in [7] stood at 20.8 µM; in test [8], 31.3 µM; in test [9], 23.7 µM; in test [10], 13.3 µM.
Consider `O=C(Nc1ccncc1)C(=O)c1cn(S(=O)(=O)c2ccccc2F)c2ccccc12`, for which the GI50 in test [1] was 3.97 µM; in test [2], 2.7 µM; in [3] it was 2.44 µM; in [4], 2.54 µM; in test [5] it was 0.546 µM; in test [6], 5.2 µM. For the same compound, the GI50 is 1.37 µM in [7], 2.11 µM in test [8], 1.89 µM in [9] and 0.893 µM in test [10]. Further, the TGI in [1] is 64.9 µM; in test [2] it was 52.4 µM; in test [3] it was 9.18 µM; in test [4] it was over 32.7 µM; in [5], over 100 µM; in test [6], over 57.8 µM. The TGI in test [7] was over 100 µM; in [8] it was 10.2 µM; in [9] it was 34.3 µM; in test [10], 6.85 µM.
Take `CN(C)CCNC(=O)c1cc([N+](=O)[O-])ccn1`: the total growth inhibition concentration (TGI) in test [1] was 58.1 µM; in [2] it was 76.4 µM; in test [3], over 100 µM; in test [4], over 100 µM; in [5], 41 µM; in test [6], 67.5 µM. Moreover, the TGI worked out at 52.2 µM in [7], 93.9 µM in [8], 92.8 µM in [9] and 56.2 µM in test [10].
Take `Cc1ccc2c(=O)[nH]sc2c1`: the concentration for total growth inhibition (TGI) in test [1] is 31.2 µM; in test [2], 33.2 µM; in [3], 28.6 µM; in [4], 45.1 µM; in test [5] it was 39.4 µM; in test [6], over 100 µM. Besides, the TGI in test [7] is 47.2 µM; in test [8], over 100 µM; in [9] it was 27.9 µM; in test [10], 43.5 µM.

The values above are taken from PubChem BioAssay (NCI).
